Legend:
[1] = Comparative solubility tests in water (10% aqueous dispersion mixed, filtered, dicyclanil determined in the filtrate by HPLC); type: physicochemical; conditions: laboratory mixer, 20 °C
Description: To document the unexpectedly low water solubility of the present salt, i.e. dicyclanil dodecylbenzenesulfonate, comparative solubility tests were carried out after 4 and 24 hours of mixing of 10% aqueous dispersion of the present salt, as well as free dicyclanil alone, in a laboratory mixer at 20 °C, after which the sample was filtered and the free/bound dicyclanil was determined in a filtrate by a HPLC method.

[2] = cited from earlier work

Compound | Solubility in water after 4 h of mixing [1] [%] | Solubility in water after 24 h of mixing ([1]; 24 h) [%] | solubility in water ([2]; at 20 °C) | solubility ([2]; in water, known dicyclanil salt) [%]
4,6-diamino-2-cyclopropylaminopyrimidine-5-carbonitrile dodecylbenzenesulfonate | 0.0490 | 0.0495 | – | –
N#Cc1c(N)nc(NC2CC2)nc1N [Technical dicyclanil TC 99.0%, 4,6-diamino-2-cyolopropylaminopyrimidine-5-carbonitrile] | 0.312 | – | approximately 0.3 % by weight | –
CS(=O)(=O)O.N#Cc1c(N)nc(NC2CC2)nc1N [salt with methanesulfonic acid] | – | – | – | > 5
